According to patent publication US9133218B2, “Pesticidally active pyridyl- and pyrimidyl-substituted thiazole derivatives” (Syngenta Participations AG, priority 2012, dated 2015):
Like-named read-outs stand apart in the source and are kept apart here.

Tests used:
Type in all cases: in vivo
[1] = test system: Myzus persicae (Green Peach Aphid); assay: Activity against Myzus persicae (green peach aphid), sunflower leaf disc spray test; settings: foliar, 144 h, read-out: activity (mortality) against Myzus persicae
Source text: Activity Against Myzus persicae (Green Peach Aphid)

[2] = test system: Bemisia tabaci (Cotton White Fly); assay: Activity against Bemisia tabaci (cotton white fly), cotton leaf disc spray test; settings: foliar, 144 h, read-out: activity (mortality and special effects) against Bemisia tabaci
Experimental: Activity Against Bemisia tabaci (Cotton White Fly)
(§1) Cotton leaf discs were placed on agar in a 24-well microtiter plate and sprayed with test solutions. After drying, the leaf discs were infested with 12 to 18 adults. After an incubation period of 6 days after infestation, samples were checked for mortality and special effects (e.g. phytotoxicity).

[3] = test system: Aedes aegypti (Yellow Fever Mosquito); assay: whole plant or invertebrate; settings: 200 ppm in ethanol, adult females, after 48 h and/or 24 h, read-out: control of Aedes aegypti (mortality)
Experimental: Aedes aegypti (Yellow Fever Mosquito)
(§2) Test solutions, at an application rate of 200 ppm in ethanol, were applied to 12 well tissue culture plates. Once the deposits were dry, five, two to five day old adult female Aedes aegypti were added to each well, and sustained with a 10% sucrose solution in a cotton wool plug. Mortality was assessed at 24 and 48 hours after introduction. The following compounds gave at least 80% control of Aedes aegypti after 48 h and/or 24 h: No. 1.026, 1.027, 1.030 and 1.025.

[4] = test system: Heliothis virescens (Tobacco Budworm); assay: Activity against Heliothis virescens (tobacco budworm), eggs on artificial diet; settings: eggs 0-24 h old, 4 days incubation, read-out: activity (egg mortality, larval mortality, growth regulation) against Heliothis virescens
Experimental: Activity Against Heliothis virescens (Tobacco Budworm)
Eggs (0-24 h old) are placed in 24-well microtiter plate on artificial diet and treated with test solutions by pipetting. After an incubation period of 4 days, samples are checked for egg mortality, larval mortality, and growth regulation.

[5] = test system: Frankliniellaoccidentalis (Western Flower Thrips); assay: Activity against Frankliniella occidentalis (western flower thrips), sunflower leaf disc spray test; settings: foliar, 168 h, mixed-age population, 7 days after treatment, read-out: activity (mortality and special effects) against Frankliniella occidentalis
Experimental: Activity Against Frankliniellaoccidentalis (Western Flower Thrips)
as §1, with “Sunflower” for “Cotton”, “are” for “were”, “a Frankliniella population of mixed ages.” for “12 to 18 adults.”, “7” for “6”, “treatment,” for “infestation,”

[6] = test system: Anopheles stephensi (Indian Malaria Mosquito); assay: Anopheles stephensi (Indian malaria mosquito) contact test on treated plates; settings: 200 ppm in ethanol, adult females, after 48 h and/or 24 h, read-out: control of Anopheles stephensi (mortality)
Experimental: Anopheles stephensi (Indian Malaria Mosquito)
as §2, with “Anopheles stephensi” for “Aedes aegypti”, “1.026” for “1.026, 1.027, 1.030”, “1.030.” for “1.025.”

[7] = test system: Tetranychusurticae (Two-Spotted Spider Mite); assay: whole plant or invertebrate; settings: Tetranychus urticae, foliar, 192 h, read-out: activity (egg, larval and adult mortality) against Tetranychus urticae
Source text: Activity Against Tetranychusurticae (Two-Spotted Spider Mite)
Bean leaf discs on agar in 24-well microtiter plates are sprayed with test solutions. After drying, the leaf discs are infested with mite populations of mixed ages. 8 days later, discs are checked for egg mortality, larval mortality, and adult mortality.

[8] = test system: Spodoptera littoralis (Egyptian Cotton Leaf Worm); assay: Activity against Spodoptera littoralis (Egyptian cotton leaf worm), systemic lettuce test; settings: 120 h, systemic via lettuce roots, 5 days after infestation, read-out: activity (mortality, repellent effect, feeding behavior, growth regulation) against Spodoptera littoralis
Source text: Activity Against Spodoptera littoralis (Egyptian Cotton Leaf Worm)
Test compounds were applied by pipette into 24 well plates and mixed with agar. Lettuce seeds were placed on the agar and the multi well plate is closed by another plate which contains also agar. After 7 days the roots have absorbed the compound and the lettuce has grown into the lid plate. The lettuce leafs were now cut off into the lid plate. Spodoptera eggs were pipetted through a plastic stencil on a humid gel blotting paper and the plate closed with it. The samples are checked for mortality, repellent effect, feeding behavior, and growth regulation 5 days after infestation.

[9] = 200 ppm, mixed-age aphid population, 6 days incubation
[10] = 200 ppm, adults, 6 days after infestation

SMILES | mortality at 200 ppm [1, 9] [%] | mortality at 200 ppm [2, 10] [%] | also measured
Cc1nc(-c2cccnc2)sc1-c1ccc2c(n1)/C(=N/O)CCC2 (single isomer, unassigned) [Compound 1.025, 2-[4-methyl-2-(3-pyridyl)thiazol-5-yl]-6,7-dihydro-5H-quinolin-8-one oxime] | > 80 | > 80 | mortality at 200 ppm [3]: ≥ 80%
CO/N=C1\CCCc2ccc(-c3cnc(-c4cccnc4)s3)nc21 [Compound 1.002] | > 80 | > 80 | mortality at 200 ppm [4]: > 80%; mortality at 200 ppm [5]: > 80%
CCO/N=C1\CCCc2ccc(-c3cnc(-c4cccnc4)s3)nc21 [Compound 1.003] | > 80 | > 80 | 
CO/N=C1\CCCc2ccc(-c3sc(-c4cccnc4)nc3C)nc21 [Compound 1.026] | > 80 | > 80 | mortality at 200 ppm [6]: ≥ 80%; mortality at 200 ppm [3]: ≥ 80%
CCO/N=C1\CCCc2ccc(-c3sc(-c4cccnc4)nc3C)nc21 [Compound 1.027] | > 80 | > 80 | mortality at 200 ppm [3]: ≥ 80%
CCCO/N=C1\CCCc2ccc(-c3sc(-c4cccnc4)nc3C)nc21 [Compound 1.028] | > 80 | > 80 | mortality at 200 ppm [7]: > 80%
Cc1nc(-c2cccnc2)sc1-c1ccc2c(n1)/C(=N/OC(C)C)CCC2 [Compound 1.029] | > 80 | > 80 | 
C=CCO/N=C1\CCCc2ccc(-c3sc(-c4cccnc4)nc3C)nc21 [Compound 1.030] | > 80 | > 80 | mortality at 200 ppm [6]: ≥ 80%; mortality at 200 ppm [3]: ≥ 80%
CO/N=C1\CCOc2ccc(-c3sc(-c4cccnc4)nc3C)nc21 [Compound 1.032, N-methoxy-6-[4-methyl-2-(3-pyridyl)thiazol-5-yl]-2,3-dihydropyrano[3,2-b]pyridin-4-imine] | > 80 | > 80 | 
CCO/N=C1\CCOc2ccc(-c3sc(-c4cccnc4)nc3C)nc21 [Compound 1.033] | > 80 | > 80 | 
Cc1nc(-c2cccnc2)sc1-c1ccc2c(n1)/C(=N/OC(C)C)CCO2 [Compound 1.035] | > 80 | > 80 | 
C=CCO/N=C1\CCOc2ccc(-c3sc(-c4cccnc4)nc3C)nc21 [Compound 1.036] | > 80 | > 80 | 
Cc1nc(-c2cccnc2)sc1-c1ccc2c(n1)/C(=N/OCCCc1ccccc1)CCC2 [Compound 1.049] | > 80 | > 80 | 
Cc1nc(-c2cccnc2)sc1-c1ccc2c(n1)/C(=N/OCC(F)F)CCC2 [Compound 1.050] | > 80 |  | mortality at 12.5 ppm [8]: > 80%
Cc1nc(-c2cccnc2)sc1-c1ccc2c(n1)/C(=N/OCCCC1OCCO1)CCC2 [Compound 1.051] | > 80 |  | 
Cc1nc(-c2cccnc2)sc1-c1ccc2c(n1)/C(=N/OCCc1ccc(F)cc1)CCC2 [Compound 1.053] | > 80 |  | mortality at 12.5 ppm [8]: > 80%
Cc1nc(-c2cccnc2)sc1-c1ccc2c(n1)/C(=N/OCCC1CCCN1C)CCC2 (stereo not drawn) [Compound 1.054] | > 80 |  | 
Cc1nc(-c2cccnc2)sc1-c1ccc2c(n1)/C(=N/OCc1ccc(Cl)cc1)CCC2 [Compound 1.062] | > 80 |  | 
Cc1nc(-c2cccnc2)sc1-c1ccc2c(n1)/C(=N/OCC#Cc1ccccc1)CCC2 [Compound 1.063] | > 80 |  | mortality at 200 ppm [7]: > 80%

SMILES | mortality at 200 ppm [1, 9] [%] | mortality at 200 ppm [2, 10] [%] | also measured
Cc1nc(-c2cccnc2)sc1-c1ccc2c(n1)/C(=N/OCC1CCCCC1)CCC2 [Compound 1.064] | > 80 |  | 
Cc1nc(-c2cccnc2)sc1-c1ccc2c(n1)/C(=N/OCCSc1ccc(F)cc1)CCC2 [Compound 1.065] |  |  | mortality at 200 ppm [4]: > 80%
Cc1nc(-c2cccnc2)sc1-c1ccc2c(n1)/C(=N/OCC1OCCO1)CCC2 [Compound 1.066] | > 80 |  | 
Cc1nc(-c2cccnc2)sc1-c1ccc2c(n1)/C(=N/OCc1cc(C(F)(F)F)cc(C(F)(F)F)c1)CCC2 [Compound 1.067] |  |  | mortality at 12.5 ppm [8]: > 80%
Cc1nc(-c2cccnc2)sc1-c1ccc2c(n1)/C(=N/OCc1ccccc1)CCC2 [Compound 1.068] | > 80 |  | 
CO/N=C1\CCSc2sc(-c3sc(-c4cccnc4)nc3C)nc21 [Compound 3.050, N-methoxy-2-[4-methyl-2-(3-pyridyl)thiazol-5-yl]-5,6-dihydrothiopyrano[3,2-d]thiazol-7-imine] | > 80 | > 80 | 
CCO/N=C1\CCSc2sc(-c3sc(-c4cccnc4)nc3C)nc21 [Compound 3.051] | > 80 | > 80 | 
C=CCO/N=C1\CCSc2sc(-c3sc(-c4cccnc4)nc3C)nc21 [Compound 3.053] | > 80 | > 80 | 
CN/N=C1\CCCc2ccc(-c3sc(-c4cccnc4)nc3C)nc21 [Compound 6.009] | > 80 |  | 
COC(=O)N/N=C1\CCCc2ccc(-c3sc(-c4cccnc4)nc3C)nc21 [Compound 6.011, Methyl N-[(E)-[2-[4-methyl-2-(3-pyridyl)thiazol-5-yl]-6,7-dihydro-5H-quinolin-8-ylidene]amino]carbamate] | > 80 | > 80 | 
CN/N=C1\CCOc2ccc(-c3sc(-c4cccnc4)nc3C)nc21 [Compound 6.016] | > 80 |  | 
COC(=O)N/N=C1\CCOc2ccc(-c3sc(-c4cccnc4)nc3C)nc21 [Compound 6.018] |  | > 80 | 
COC(=O)N(C)/N=C1\CCOc2ccc(-c3sc(-c4cccnc4)nc3C)nc21 [Compound 6.019] |  |  | mortality at 200 ppm [1]: > 80%; mortality at 200 ppm [2]: > 80%
Cc1nc(-c2cccnc2)sc1-c1ccc2c(n1)/C(=N/N(C)S(C)(=O)=O)CCO2 [Compound 6.021] |  | > 80 | 
Cc1nc(-c2cccnc2)sc1-c1ccc2c(n1)/C(=N/Nc1ccc(F)cc1)CCC2 [Compound 6.029] | > 80 |  | 
Cc1nc(-c2cccnc2)sc1-c1ccc2c(n1)/C(=N/NCC(F)(F)F)CCC2 [Compound 6.032] | > 80 |  | 
Cc1nc(-c2cccnc2)sc1-c1ccc2c(n1)/C(=N\NCC(F)(F)F)CCC2 [Compound 6.033] | > 80 |  | mortality at 200 ppm [4]: > 80%
COc1ccc(N/N=C2\CCCc3ccc(-c4sc(-c5cccnc5)nc4C)nc32)cc1 [Compound 6.034] | > 80 |  | 
Cc1nc(-c2cccnc2)sc1-c1ccc2c(n1)/C(=N/NC(C)(C)C)CCC2 [Compound 6.035] | > 80 |  | 
